Source: patent publication US12472197B2 (priority 2020, dated 2025)
Read-outs that look alike come from different tables or passages of the source.

How the values were obtained:
[1] = human, in vivo
[2] = system: SARS-CoV-2; assay: Randomized placebo-controlled dose-ranging study, IV infusion in hospitalized adults with COVID-19 (Part 1)
[3] = Phase 1 single ascending dose study, intravenous administration in healthy human subjects; assay type: in vivo; details: for AUC0-inf / AUC24 / CL / Cmax / Vz / t1/2 / AUCt: geometric mean, preliminary; for AUCt: t 120 h to 480 h
Procedure: The agent used in this Example was compound A (the compound of formula I, where A is NH2 and B is H as the HCL salt). A phase 1 double-blind, placebo-controlled, single ascending dose study was conducted to evaluate the safety, tolerability, and pharmacokinetics of Compound A administered by intravenous (IV) administration in healthy human subjects. Four cohorts were administered the study drug at the following doses: 5 mg/kg, 10 mg/kg, 15 mg/kg, and 20 mg/kg. Eight subjects received a single IV dose per cohort (6 subjects received Compound A; 2 subjects received matching placebo). Subject dosing was staggered as a safety precaution.
The plasma PK concentration-time profile of Compound A at all doses was characterized by an initial rapid distribution and clearance phase, and a slow terminal clearance phase. […] The inter-subject variability in exposure (Cmax and AUC) was low, as reflected in the geometric mean coefficients of variance (CVs) on these parameters. No subjects met any stopping criteria for any cohort.

[4] = system: MERS-CoV (Jordan strain); assay type: cell-based; details: Vero-76 cells
[5] = system: Vero76 cells
[6] = human, in vivo; remark: listed apart in the source
[7] = NOAEL exposure in NHP; assay type: in vivo; details: 30 mg/kg dose
[8] = system: SARS-CoV-2 (WA1/2020 isolate); assay: SARS-CoV-2 hamster model of infection; details: for lung tissue histopathology (total histology score) vs vehicle control: Days +3 and +7; for lung viral burden lower than vehicle control: 100 mg/kg BID i.p., Day 3 post-infection
[9] = system: SARS-CoV-2 (WA1/2020 strain); assay: Virus yield reduction (VYR) assay, SARS-CoV-2 in Vero76 cells; assay type: cell-based; details: for EC90: Vero76 cells
[10] = human, in vivo; remark: listed apart in the source
[11] = system: SARS-CoV (Urbani strain); assay type: cell-based; details: Vero-76 cells
[12] = EC50 adjusted with CLE, read-out: Adjusted EC50
[13] = NR uptake, MOI 0.001, 3 days, read-out: EC50

Question: For `Nc1ncnc2c([C@@H]3N[C@H](CO)[C@@H](O)[C@H]3O)c[nH]c12` [Compound A], which safety and tolerability [1] is on record?
Answer: generally safe and well tolerated

Question: And the safety and tolerability ([2]; Cohorts 1-3, IV loading/maintenance regimens for 7 days, hospitalized COVID-19 patients)?
Answer: safe and generally well tolerated

Question: What about the “clinical efficacy compared to placebo” value ([2]; Cohorts 1-3, Part 1 not sized for efficacy) of the same compound?
Answer: no clinical efficacy benefit

Question: And the “decline in viral RNA levels in the respiratory tract” value ([2]; Cohorts 1-3, apparent dose-dependent manner)?
Answer: more rapid decline in viral RNA levels in the respiratory tract

Question: And the “time to a negative viral RNA result in LRT samples compared to placebo” value ([2]; Cohorts 1-3, shortest in Cohorts 2 and 3)?
Answer: shorter time to a negative viral RNA result

Question: What about the AUC0-inf ([3]; single IV dose 5 mg/kg) of the same compound?
Answer: 21200 ng·h/mL

Question: What about the AUC24 ([3]; single IV dose 5 mg/kg) of the same compound?
Answer: 10950 ng·h/mL

Question: What about the CL ([3]; single IV dose 5 mg/kg) of the same compound?
Answer: 17.1 L/h

Question: And the Cmax ([3]; single IV dose 5 mg/kg)?
Answer: 5540 ng/mL

Question: What about the Vz ([3]; single IV dose 5 mg/kg) of the same compound?
Answer: 2725 L

Question: What about the t1/2 ([3]; single IV dose 5 mg/kg) of the same compound?
Answer: 111 h

Question: And the AUCt ([3]; single IV dose 5 mg/kg)?
Answer: 17100 ng·h/mL

Question: And the AUC0-inf ([3]; single IV dose 10 mg/kg)?
Answer: 37100 ng·h/mL

Question: And the AUC24 ([3]; single IV dose 10 mg/kg)?
Answer: 21070 ng·h/mL

Question: And the CL ([3]; single IV dose 10 mg/kg)?
Answer: 20.7 L/h

Question: What about the Cmax ([3]; single IV dose 10 mg/kg) of the same compound?
Answer: 10300 ng/mL

Question: What about the Vz ([3]; single IV dose 10 mg/kg) of the same compound?
Answer: 3049 L

Question: And the t1/2 ([3]; single IV dose 10 mg/kg)?
Answer: 114.5 h

Question: What about the AUCt ([3]; single IV dose 10 mg/kg) of the same compound?
Answer: 32400 ng·h/mL

Question: What about the AUC0-inf ([3]; single IV dose 15 mg/kg) of the same compound?
Answer: 65900 ng·h/mL

Question: What about the AUC24 ([3]; single IV dose 15 mg/kg) of the same compound?
Answer: 34370 ng·h/mL

Question: What about the CL ([3]; single IV dose 15 mg/kg) of the same compound?
Answer: 16.7 L/h

Question: What about the Cmax ([3]; single IV dose 15 mg/kg) of the same compound?
Answer: 17700 ng/mL

Question: And the Vz ([3]; single IV dose 15 mg/kg)?
Answer: 4138 L

Question: What about the t1/2 ([3]; single IV dose 15 mg/kg) of the same compound?
Answer: 182.5 h

Question: And the AUCt ([3]; single IV dose 15 mg/kg)?
Answer: 59900 ng·h/mL

Question: What about the AUC0-inf ([3]; single IV dose 20 mg/kg) of the same compound?
Answer: 81200 ng·h/mL

Question: And the AUC24 ([3]; single IV dose 20 mg/kg)?
Answer: 44770 ng·h/mL

Question: What about the CL ([3]; single IV dose 20 mg/kg) of the same compound?
Answer: 17.9 L/h

Question: And the Cmax ([3]; single IV dose 20 mg/kg)?
Answer: 20500 ng/mL

Question: What about the Vz ([3]; single IV dose 20 mg/kg) of the same compound?
Answer: 4010 L

Question: And the t1/2 ([3]; single IV dose 20 mg/kg)?
Answer: 133.5 h

Question: And the AUCt ([3]; single IV dose 20 mg/kg)?
Answer: 73400 ng·h/mL

Question: What about the safety and tolerability ([3]; single IV dose 5-20 mg/kg, healthy subjects) of the same compound?
Answer: generally safe and well tolerated

Question: And the “dose proportionality of Cmax, AUCt and AUCinf” value ([3]; single IV doses 5-20 mg/kg)?
Answer: increased in dose-proportional manner

Question: What about the EC50 [4, 12] of the same compound?
Answer: 2.15 µM

Question: What about the EC50 [4, 13] of the same compound?
Answer: 26.9 µM

Question: And the CC50 [5]?
Answer: > 296 µM

Question: What about the safety and tolerability [6] of the same compound?
Answer: generally safe and well tolerated

Question: And the NOAEL exposure [7]?
Answer: approximately 52,500 ng*h/mL

Question: And the “lung tissue histopathology (total histology score) vs vehicle control” value ([8]; Group 1 (first dose −24 hours))?
Answer: reduced/no tissue histopathology as compared with vehicle control

Question: What about the “animals that achieved PFU<10 (lower limit of quantification) in OP swabs” value ([8]; Group 1, 100 mg/kg BID i.p., first dose −24 hr) of the same compound?
Answer: 62.5%

Question: What about the weight loss ([8]; Group 1, 100 mg/kg BID i.p., first dose −24 hr relative to infection) of the same compound?
Answer: < 5%

Question: And the “lung tissue histopathology (total histology score) vs vehicle control” value ([8]; Group 2 (first dose +1.5 hours))?
Answer: reductions relative to vehicle control

Question: And the “lung viral burden lower than vehicle control” value ([8]; Group 3 (first dose +24 hours))?
Answer: ~0.66 log

Question: What about the “clinical scores, adverse impact of dosing” value ([8]; Groups 1-3, 100 mg/kg BID i.p.) of the same compound?
Answer: no adverse impact

Question: What about the “lung viral burden lower than vehicle control” value ([8]; Groups 1 and 2 (first dose −24 and +1.5 hours)) of the same compound?
Answer: 1.4-1.6 log

Question: And the EC90 ([9]; EC90 adjusted with CLE, read-out: Adjusted EC90)?
Answer: 0.87 µM

Question: And the SI ([9]; SI=CC50/EC90, Vero76 cells)?
Answer: >27

Question: And the EC90 ([9]; VYR at day 3, MOI 0.002, compound added 24 hours prior to infection, read-out: EC90)?
Answer: 10.9 µM

Question: What about the “dose proportionality of exposure” value [10] of the same compound?
Answer: dose-proportional and linear with increasing dose

Question: And the safety and tolerability [10]?
Answer: generally safe and well tolerated

Question: And the “time after administration at which plasma concentrations were maximal” value [10]?
Answer: 1 to 2 h

Question: And the “increase in exposure (AUC) with repeat dosing” value ([10]; im)?
Answer: approximately 1.5 fold

Question: What about the t1/2 ([10]; im, 2.5 mg/kg) of the same compound?
Answer: 104 (15.9) h

Question: What about the t1/2 ([10]; im, 5 mg/kg) of the same compound?
Answer: 85.7 (17.3) h

Question: And the AUC0-24 ([10]; im, 10 mg/kg)?
Answer: 20300 ng·h/mL

Question: And the AUCtau ([10]; im, 10 mg/kg)?
Answer: 34500 ng·h/mL

Question: And the Cmax ([10]; im, 10 mg/kg)?
Answer: 7980 ng/mL

Question: What about the Tmax ([10]; im, 10 mg/kg) of the same compound?
Answer: 0.375 h

Question: What about the t1/2 ([10]; im, 10 mg/kg) of the same compound?
Answer: 113 (26.4) h

Question: And the EC50 [11, 12]?
Answer: 4.6 µM

Question: What about the EC50 [11, 13] of the same compound?
Answer: 57.7 µM
